Measured values taken from PMC9555310, “Novel inhibitors and activity-based probes targeting serine proteases” (Frontiers in Chemistry, 2022).
pKi: −log10 of the molar value. Where “and” joins values, the source holds several entries; their conditions need not be identical. Equal values may be shown once.

Assays:
chymotrypsin = target: T1, chymotrypsin (Bos taurus, UniProt P00766); test: Irreversible inhibition kinetics of chymotrypsin (fluorogenic substrate progress curves); format: biochemical, bovine
T1 construct: purchased Sigma-Aldrich (supplement); Calbiochem; host or cells: bovine pancreas
Experimental: (§1) A range of inhibitor concentrations were prepared from a 10 mM stock solution of the test compounds (NAP533, NAP559, NAP800, NAP830, NAP849, and NAP962) in N, N-dimethylformamide (DMF). Recombinant protease activities were assayed using the cognate fluorogenic substrates as follows: trypsin (Z-Gly-Gly-Arg-NHMec), thrombin (Boc-Val-Pro-Arg-NHMec), plasmin (Boc-Val-Leu-Lys-NHMec), human neutrophil elastase (MeO-Succinyl-Ala-Ala-Pro-Val-NHMec), and chymotrypsin (Succinyl-Ala-Ala-Pro-Phe-NHMec). Each substrate was used at a final concentration of 50 μM, in the appropriate buffer for each protease. All inhibition assays were performed in microtiter plates maintained at 37°C in a final volume of 100 μL. The reaction was initiated by the addition of each protease (approx. 0.01 μg/well) and the rate of substrate hydrolysis was recorded continuously at 37°C, over a 60 min period, by measuring the rate of increase in fluorescence (at λex 360 nm, λem 480 nm) using a FLUOstar Optima microplate reader (BMG Labtech).
(§2) The resultant inhibition progress curves obtained for each inhibitor were analyzed by the kinetic models developed by [Tian and Tsou (1982)] and [Walker and Elmore (1984)], for irreversible inhibitors, with curve fitting being achieved using GraFit (Erithacus Software), as described previously ([Ferguson et al., 2016]).
FIGURE 4 Progress curves for (A), chymotrypsin-catalysed hydrolysis of Succinyl-Ala-Ala-Pro-Phe-NHMec, in the presence of varying concentrations of NAP849. (B), NE-catalysed hydrolysis of MeO-succinyl-Ala-Ala-Pro-Val-NHMec, in the presence of varying concentrations of NAP800. (C) Trypsin-catalysed of Z-Gly-Gly-Arg-NHMec, in the presence of NAP830. (D) Plasmin-catalysed hydrolysis of Boc-Val-Leu-Lys-NHMec, in the presence of varying concentrations of NAP962. Assays were carried out in PBS, pH 7.4, at 37°C, in the presence of a range of inhibitor concentrations (0.25–50 μM) and a fixed concentration (50 μM) of the appropriate substrate for each protease.
The “product progress” curves for substrate hydrolysis in the presence of an inhibitor (Figure 4) are indicative of the action of irreversible inhibitors operating through the kinetic scheme illustrated in Figure 6. In this scheme, the formation of the reversible enzyme–inhibitor complex (EI) is zcharacterized by the inhibitor constant K i. This is converted into the covalent/irreversible complex (E-I) characterized by a first-order rate constant k 3. The overall second-order rate constant for the inactivation of E by I is given by the ratio k 3/K i ([Walker and Elmore, 1984]; [Tsou, 1988]). […]
Protease inactivation by each of the compounds under study was evaluated using a fluorogenic enzyme assays. […]

thrombin = target: T2, thrombin (Homo sapiens, UniProt P00734); test: Irreversible inhibition kinetics of thrombin (fluorogenic substrate progress curves); format: biochemical; conditions: PBS pH 7.4, 37°C, mean ± SD (n=2)
T2 construct: apparent molecular mass of 31 kDa, corresponding to the heavy (catalytic) chain of the protease; purchased R&D Systems
Experimental: as §1, §2
Protease inactivation by each of the compounds under study was evaluated using a fluorogenic enzyme assays. Protease-substrate combinations used as detailed in Section 2. Inhibitors were made up as 10 mM stock solutions in either DMF or DMSO, then diluted with PBS (pH 7.4) to give appropriate working concentrations. A final volume of 100 μL was used per well. […] Increase in fluorescence was recorded using a FLUOstar OPTIMA spectrofluorometer (BMG Labtech), excitation 380 nm and emission 460 nm, for 61 cycles (60 seconds/cycle), with results analysed using MARS Data Analysis Software (BMG Labtech). […]

pKi (chymotrypsin; Succinyl-Ala-Ala-Pro-Phe-NHMec 50 μM, PBS pH 7.4, 37°C, mean ± SD (n=3))	k 3 (chymotrypsin; first-order rate constant, PBS pH 7.4, 37°C, mean ± SD (n=3))	second-order rate constant relative to the analogous phenylalanine diphenyl phosphonate QUBCL1 (chymotrypsin; fold greater than QUBCL1)	KI (inactivation) (thrombin; Boc-Val-Pro-Arg-NHMec 50µM) [µM]	k 3 (thrombin; first-order rate constant)	k 3 / K i (thrombin; second-order rate constant)	SMILES	k 3 / K i (chymotrypsin; second-order rate constant of inactivation, PBS pH 7.4, 37°C, mean ± SD (n=3))
6.05	0.85 (± 0.29) min^−1	approximately ten-fold				O=C(CCCCC1SCC2NC(=O)NC21)NCCCOCCOCCOCCCNC(=O)CNC(=O)CNC(=O)CN(Cc1ccccc1)C(=O)ON1C(=O)CCC1=O (stereo not drawn) [NAP849, Succinimidoyl-CO-NPhe-Gly-Gly-PEG-Biotin]	1.28 × 10^6 M^−1 min^−1 and 1.28 (± 0.44) × 10^6 M^−1 min^−1
			5.67	0.6 (± 0.068) min^-1	1.1 (± 0.3) x 10^5 M^-1 min^-1	N=C(N)NCCCN(CC(=O)N1CCC[C@H]1C(=O)N(CC(N)=O)Cc1ccccc1)C(=O)ON1C(=O)CCC1=O [NAP559, Succinimidoyl-CO-NArg-D-Pro-NPhe-NH2]	
